Test results published in patent US8685924B2, “Preventives/remedies for stress urinary incontinence and method of screening the same” (Takeda Pharmaceutical Company Limited, priority 2004, dated 2014).

Key:
Assay type in all cases: in vivo, rat
[1] = test system: urethane-anesthetized female rats; assay: Leak point pressure by intravesical pressure-clamp method (Example 6); conditions: for leak point pressure after drug administration / leak point pressure before drug administration: i.v., mean ± SEM; for leak point pressure after drug administration: 10 min later; for leak point pressure before drug administration: baseline; for effect on leak point pressure: intravesical pressure-clamp method
Experimental: (§1) SD female rats (body weight 180-350 g) were anesthetized with urethane (Wako Pure Chemical Industries, Ltd.), and the spinal cord was transected at T8-9 level to eliminate the reflex voiding.
Halothane (Takeda Pharmaceutical Company Limited) anesthesia was added when necessary during operation. After laparotomy, the bladder neck was tied with a suture thread and then a catheter (PE-90, Clay Adams) was inserted into the bladder and secured with a ligature. The other end of the bladder catheter was connected to a pressure transducer and saline storage reservoir (60 ml syringe) via a three-way cock.
Changes in the intravesical pressure measured by a transducer were input in a computer via an amplifier (blood pressure amplification unit AP-641G; NIHON KODEN) and an analog-to-digital cinverter (MP-100; biopack) and recorded on a hard disc. The intravesical pressure was raised for 90 sec by setting the saline storage reservoir at a given height, and the presence or absence of saline leakage from the urethral orifice was observed. The intravesical pressure was raised every 2.5 cmH2O and, after 90 sec observation period, the intravesical pressure was once returned to 0 cmH2O, after which the next step was performed. The intravesical pressure at which the saline leakage from the urethral orifice was observed was taken as the leak point pressure. The measurement of the leak point pressure was repeated and the average of the final three measures was taken as the value before the drug administration. The drug was intravenously administered, and the leak point pressure was measured again 10 min later. The drug was dissolved in DMA-PEG400 (1:1), and administered at 0.5 ml/kg.

[2] = test system: urethane-anesthetized female rats; assay: Urethral contractile responses induced by intravesical pressure increase (Example 5); conditions: for urethral contractile responses before administration: baseline; for urethral contractile responses before administration / urethral contractile responses after administration: mean ± SEM of 5 cases; for urethral contractile responses after administration: 5 min later; for effect on urethral contractile responses during elevation of intravesical pressure: intravenous, duloxetine 10 mg/kg, WAY161503 0.3 mg/kg
Experimental: as §1
Halothane (Takeda Pharmaceutical Company Limited) anesthesia was added when necessary during operation. After laparotomy, the bladder neck was tied with a suture thread and then a catheter (PE-90, Clay Adams) was inserted into the bladder and secured with a ligature. The other end of the bladder catheter was connected to a pressure transducer and saline storage reservoir (60 ml syringe) via a three-way stopcock. A microchip-transducer-catheter (SPR-524, Millar Instruments Inc.) was inserted from the meatus urethra. toward the bladder. Using the scale written on the catheter surface, the transducer part was set in the urethra at 12.5-15.0 mm from the urethral orifice with its side-mounted sensor facing the inner urethral surface in the 3 o'clock position.
Topical pressure changes in the urethra (hereinafter to be conveniently indicated as intraurethral pressure) measured by a microchip-transducer were input in a computer via an amplifier (blood pressure amplification unit AP-641G; NIHON KODEN) and an analog-to-digital converter (MP-100; biopack; sampled at 500 Hz) and recorded on a hard disc. […] The response of the urethra induced by the intravesical pressure increase was measured 3 times and the average of the final two measures was taken as the value before the drug administration.
The evaluation parameters were a resting intraurethral pressure and a reflex urethral contractile responses. An average intraurethral pressure per 1 sec was calculated, and the value immediately before intravesical pressure increase was taken as the resting intraurethral pressure, and the value obtained by subtracting the resting intraurethral pressure from the maximum value during intravesical pressure increase was taken as the urethral responses. After measurement of the response before drug administration, WAY-161503 (0.3 mg/kg), which is a serotonin 5-HT2C receptor agonist, or duloxetine (10 mg/kg) was intravenously administered, the intravesical pressure was increased again 5 min later, and the responses of the urethra were measured. The both drugs were dissolved in DMA-PEG400 (1:1), and administered at 0.5 ml/kg.

[3] = test system: urethane-anesthetized female rats; assay: Leak point pressure by direct compressing of the bladder (Example 4); conditions: for leak point pressure after drug administration / leak point pressure increase / leak point pressure before drug administration: i.v., mean ± SEM; for leak point pressure after drug administration: 20 min later; for leak point pressure before drug administration: baseline; for effect on leak point pressure: intravenous administration
Experimental: SD female rats (body weight 180-350 g) were anesthetized with urethane (Wako Pure Chemical Industries, Ltd.), and halothane (Takeda Pharmaceutical Company Limited) anesthesia was added when necessary during operation.
The spinal cord was transected at T8-9 level to eliminate the reflex voiding. The lower abdomen was incised in the median line, a catheter for intravesical pressure measurement (PE-90, Clay Adams) was inserted into the bladder and secured with a ligature, and the intravesical pressure was measured via a pressure transducer. Urine was emptized in advance by bilaterally pressing the bladder with two swabs, and a 0.1% Evans blue (Merck) solution (0.4 mL) was injected into the bladder. The bladder was gradually compressed bilaterally with two swabs, and the intravesical pressure upon saline leakage from the urethral orifice was measured and defined as a leak point pressure. The measurement of the leak point pressure was repeated, and the average value of the final five stable measures was taken as the value before drug administration. Thereafter, the drug was intravenously administered, the leak point pressure was measured again 20 min later, and the value after the drug administration was determined. DOI, mCPP and eltoprazine were dissolved in saline, and other drugs were dissolved in DMA/PEG400 (1:1), and intravenously administered at 1 ml/kg and 0.5 mg/kg, respectively. Depending on the experiment, RS-102221 or SB221284 (showing serotonin 5-HT2C receptor antagonist activity) was administered, 5 min later, WAY-161503 or WAY-163909 was administered, leak point pressure was measured 10 min later, and a competitive assay with the action of WAY-161503 or WAY-163909 was performed. RS-102221 and SB221284 were both dissolved in DMA/PEG400 (1:1), and intravenously administered at 0.5 ml/kg.

SMILES: O=C1Nc2cc(Cl)c(Cl)cc2N2CCNCC12 (stereo not drawn) [WAY-161503]
- leak point pressure after drug administration ([1]; 0.01 mg/kg): 37.3 ± 3.5 cmH2O
- leak point pressure after drug administration ([1]; 0.03 mg/kg): 41.2 ± 3.0 cmH2O
- leak point pressure after drug administration ([1]; 1 mg/kg): 43.6 ± 3.2 cmH2O
- leak point pressure before drug administration ([1]; dose group 0.01 mg/kg): 33.4 ± 3.4 cmH2O
- leak point pressure before drug administration ([1]; dose group 0.03 mg/kg): 34.8 ± 3.2 cmH2O
- leak point pressure before drug administration ([1]; dose group 1 mg/kg): 34.8 ± 3.0 cmH2O
- effect on leak point pressure [1]: increased the leak point pressure
- urethral contractile responses before administration ([2]; increase in intravesical pressure to 25 cmH2O, dose group 0.3 mg/kg i.v.): 7.0 ± 1.4 cmH2O
- urethral contractile responses before administration ([2]; increase in intravesical pressure to 50 cmH2O, dose group 0.3 mg/kg i.v.): 12.8 ± 2.4 cmH2O
- urethral contractile responses after administration ([2]; increase in intravesical pressure to 25 cmH2O, 0.3 mg/kg i.v.): 11.3 ± 1.8 cmH2O
- urethral contractile responses after administration ([2]; increase in intravesical pressure to 50 cmH2O, 0.3 mg/kg i.v.): 19.2 ± 3.4 cmH2O
- effect on urethral contractile responses during elevation of intravesical pressure [2]: significant increase in the urethral contractile responses
- leak point pressure after drug administration ([3]; 0.03 mg/kg): 62.0 ± 5.8 cmH2O
- leak point pressure increase ([3]; 0.03 mg/kg): 7.1 ± 2.4 cmH2O
- leak point pressure after drug administration ([3]; 0.1 mg/kg): 66.1 ± 2.8 cmH2O
- leak point pressure increase ([3]; 0.1 mg/kg): 11.5 ± 1.8 cmH2O
- leak point pressure after drug administration ([3]; 0.3 mg/kg): 77.7 ± 3.6 cmH2O
- leak point pressure increase ([3]; 0.3 mg/kg): 22.0 ± 3.4 cmH2O
- leak point pressure before drug administration ([3]; dose group 0.03 mg/kg): 54.9 ± 6.1 cmH2O
- leak point pressure before drug administration ([3]; dose group 0.1 mg/kg): 54.7 ± 2.5 cmH2O
- leak point pressure before drug administration ([3]; dose group 0.3 mg/kg): 55.7 ± 3.8 cmH2O
- effect on leak point pressure [3]: dose-dependently increased the leak point pressure

SMILES: CNCC[C@H](Oc1cccc2ccccc12)c1cccs1 [duloxetine]
- leak point pressure after drug administration ([1]; 0.001 mg/kg): 38.2 ± 3.7 cmH2O
- leak point pressure after drug administration ([1]; 0.01 mg/kg): 42.8 ± 4.9 cmH2O
- leak point pressure before drug administration ([1]; dose group 0.001 mg/kg): 36.5 ± 4.2 cmH2O
- leak point pressure before drug administration ([1]; dose group 0.01 mg/kg): 37.0 ± 4.5 cmH2O
- effect on leak point pressure [1]: increased the leak point pressure
- urethral contractile responses before administration ([2]; increase in intravesical pressure to 25 cmH2O, dose group 10 mg/kg i.v.): 8.5 ± 0.5 cmH2O
- urethral contractile responses before administration ([2]; increase in intravesical pressure to 50 cmH2O, dose group 10 mg/kg i.v.): 13.4 ± 2.1 cmH2O
- urethral contractile responses after administration ([2]; increase in intravesical pressure to 25 cmH2O, 10 mg/kg i.v.): 11.4 ± 0.6 cmH2O
- urethral contractile responses after administration ([2]; increase in intravesical pressure to 50 cmH2O, 10 mg/kg i.v.): 17.8 ± 2.2 cmH2O
- effect on urethral contractile responses during elevation of intravesical pressure [2]: enhanced the urethral contractile responses
- leak point pressure after drug administration ([3]; 0.01 mg/kg): 60.5 ± 5.1 cmH2O
- leak point pressure increase ([3]; 0.01 mg/kg): 2.4 ± 2.6 cmH2O
- leak point pressure after drug administration ([3]; 0.03 mg/kg): 67.8 ± 2.9 cmH2O
- leak point pressure increase ([3]; 0.03 mg/kg): 6.5 ± 1.6 cmH2O
- leak point pressure after drug administration ([3]; 0.1 mg/kg): 72.6 ± 3.4 cmH2O
- leak point pressure increase ([3]; 0.1 mg/kg): 9.3 ± 1.2 cmH2O
- leak point pressure after drug administration ([3]; 0.3 mg/kg): 73.3 ± 3.9 cmH2O
- leak point pressure increase ([3]; 0.3 mg/kg): 8.8 ± 2.1 cmH2O
- leak point pressure after drug administration ([3]; 1 mg/kg): 75.0 ± 4.0 cmH2O
- leak point pressure increase ([3]; 1 mg/kg): 13.9 ± 1.8 cmH2O
- leak point pressure before drug administration ([3]; dose group 0.01 mg/kg): 58.1 ± 6.0 cmH2O
- leak point pressure before drug administration ([3]; dose group 0.03 mg/kg): 61.3 ± 3.3 cmH2O
- leak point pressure before drug administration ([3]; dose group 0.1 mg/kg): 63.3 ± 3.8 cmH2O
- leak point pressure before drug administration ([3]; dose group 0.3 mg/kg): 64.5 ± 3.5 cmH2O
- leak point pressure before drug administration ([3]; dose group 1 mg/kg): 61.1 ± 3.4 cmH2O
- effect on leak point pressure [3]: increased the leak point pressure
